Source: US8796247B2, “Indole derivative, and pharmacologically acceptable salt thereof” (Kissei Pharmaceutical Co., Ltd., priority 2011, dated 2014)

What follows are compounds tested against T1, rat EP1 receptor (Rattus norvegicus, UniProt P70597) (assay: Test for confirmation of EP1 receptor antagonism: inhibition of prostaglandin E2-induced increase in intracellular calcium concentration in rat EP1 receptor-expressing COS-1 cells). Conditions: prostaglandin E2 10 nM, intracellular calcium fluorescence signal.
T1 construct: expressed in transfected cells; host or cells: COS-1 cells, transient transfection with Lipofectamine 2000
T1 sequence (P70597 1-405): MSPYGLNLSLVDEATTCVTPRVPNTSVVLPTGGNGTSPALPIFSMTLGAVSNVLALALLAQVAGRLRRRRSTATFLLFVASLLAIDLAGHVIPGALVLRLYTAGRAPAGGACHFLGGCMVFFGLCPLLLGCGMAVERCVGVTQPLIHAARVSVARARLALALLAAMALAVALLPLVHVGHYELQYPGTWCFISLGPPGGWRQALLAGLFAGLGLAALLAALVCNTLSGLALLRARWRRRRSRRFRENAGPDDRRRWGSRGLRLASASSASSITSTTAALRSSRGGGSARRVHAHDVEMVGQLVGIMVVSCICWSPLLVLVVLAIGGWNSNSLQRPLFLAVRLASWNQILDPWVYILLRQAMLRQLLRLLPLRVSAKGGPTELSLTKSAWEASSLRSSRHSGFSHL
Type: cell-based
Experimental: Test for Confirmation of EP1 Receptor Antagonism
(1) Preparation of Rat EP1 Expression Vector
Using Rat Kidney BD Marathon-Ready cDNA (Nippon Becton Dickinson Company, Ltd.) as a template, and using a forward primer shown in (SEQ ID NO:1) and a reverse primer shown in (SEQ ID NO:2), a first run of PCR was carried out using KOD-Plus-Ver 2.0 (Toyobo Co., Ltd.). Further, using this amplification product as a template, and using a forward primer shown in (SEQ ID NO:3) and a reverse primer shown in (SEQ ID NO:4), a second run of PCR was carried out in the same manner. The amplification product obtained by the second run of PCR was incorporated into a vector (pcDNA3.1 D/V5-His-TOPO (registered trademark), Invitrogen Japan K. K.). By a conventional method, the vector containing this amplification product was introduced into E. coli (One Shot TOP10 Competent Cells, Invitrogen Corporation) and transformed. This transformed E. coli was cultured in an LB agar medium for one day. After the culture, colonies were selected and cultured in an LB liquid medium containing 50 μg/mL of ampicillin. After the culture, the vector was purified using a QIAprep Spin Miniprep Kit (Qiagen K. K.). The base sequence of the insertion site of this vector (SEQ ID NO:5) was compared with the rat EP1 base sequence (Ptger1) registered as Accession No. NM_013100 in a publicly-known database (NCBI), and as a result, the base sequences completely matched except for a single base. Further, the amino acid sequence translated by the base sequence completely matched the amino acid sequence of the rat EP1 receptor registered as an NCBI Accession No. NP_037232. Therefore, it was confirmed that the cloned gene sequence was a base sequence of the rat EP1 receptor and the obtained amino acid sequence was that of the rat EP1 receptor. The pcDNA3.1 D/V5-His-TOPO (registered trademark) into which the nucleic acid shown in (SEQ ID NO:5) had been inserted was taken as a rat EP1-expressing vector.
(2) Preparation of Rat EP1 Receptor-Expressing Cells
COS-1 cells (Dainippon Sumitomo Pharma Co., Ltd.) were cultured until they reached confluence in an incubator at 37° C. under a 5% CO2 gas condition, using a D-MEM liquid medium (high glucose and L-glutamine contained, Invitrogen Corporation) to which a penicillin-streptomycin solution (Invitrogen Corporation, final concentration: 100 U/mL as benzylpenicillin; 100 μg/mL as streptomycin) as an antibiotic, MEM nonessential amino acids (Invitrogen Corporation, final concentration: 0.1 mM), and fetal calf serum (Sanko Junyaku Co., Ltd., final concentration: 10%) were added.
(2-2) COS-1 Cell Subculture
The cells that had reached confluence were stripped with 0.05% trypsin/0.53 mM EDTA•4Na (Invitrogen Japan K. K.) and resuspended in the liquid medium. The resuspended cells were diluted and cultured in the liquid medium at a spread ratio from 1:4 to 1:8.
(2-3) Preparation of Cells for Introduction of Rat EP1-Expressing Vector
The cells that had reached confluence were stripped with 0.05% trypsin/0.53 mM EDTA•4Na, and resuspended in a D-MEM liquid medium (high glucose and L-glutamine contained, Invitrogen Corporation) to which MEM nonessential amino acids (final concentration: 0.1 mM) and fetal calf serum (final concentration: 10%) were added. In each well of a Poly D-lysine-coated 96-well microplate (BD BioCoat (registered trademark), Nippon Becton Dickinson Company, Ltd.), this resuspended cell suspension culture was prepared to be 5×10^4 cells/well in 100 μL of the liquid medium, and 100 μL of the cell suspension was dispensed and seeded in each well. After seeding, the cells were cultured in an incubator at 37° C. under a 5% CO2 gas condition. Once the cells for introduction of a rat EP1-expressing vector were adhered (about 2 hours after seeding), introduction of the rat EP1-expressing vector was carried out in the following order.
(2-4) Introduction of Rat EP1-Expressing Vector […]

CCS(=O)(=O)NC(=O)c1cccc(Cn2c(-c3ccccc3)cc3cc(OC)c(F)cc32)n1 [Example 4-20, N-(ethanesulfonyl)-6-(6-fluoro-5-methoxy-2-phenylindol-1-ylmethyl)pyridine-2-carboxamide] and CCCS(=O)(=O)NC(=O)c1cccc(Cn2c(-c3ccccc3)cc3cc(OC)c(F)cc32)n1 [Example 4-22, 6-(6-fluoro-5-methoxy-2-phenylindol-1-ylmethyl)-N-(propane-1-sulfonyl)pyridine-2-carboxamide] are within 1.5-fold of each other in IC50: 40 nM for the first, 59 nM for the second.

COc1cc2cc(-c3ccsc3)n(Cc3cccc(-c4nnn[nH]4)n3)c2cc1F [Example 2-4, 6-fluoro-5-methoxy-1-[6-(1H-1,2,3,4-tetrazol-5-yl)pyridin-2-ylmethyl]-2-(thiophen-3-yl)-1H-indole] and COc1cc2cc(-c3ccccc3)n(Cc3cccc(-c4nnn[nH]4)n3)c2cc1F [Example 5-3, 6-fluoro-5-methoxy-2-phenyl-1-[6-(1H-1,2,3,4-tetrazol-5-yl)pyridin-2-ylmethyl]-1H-indole] are within 1.5-fold of each other in IC50: 32 nM for the first, 31 nM for the second.

CCC(C)c1cc2cc(OC)c(Cl)cc2n1Cc1cccc(C(=O)NS(=O)(=O)CC)n1 (stereo not shown) [Example 4-2, 6-[2-(butan-2-yl)-6-chloro-5-methoxyindol-1-ylmethyl]-N-(ethanesulfonyl)pyridine-2-carboxamide] and CCC(C)c1cc2cc(OC)ccc2n1Cc1cccc(C(=O)NS(=O)(=O)CC)n1 (stereo not shown) [Example 4-10, 6-[2-(butan-2-yl)-5-methoxyindol-1-ylmethyl]-N-(ethanesulfonyl)pyridine-2-carboxamide] are within 1.5-fold of each other in IC50: 31 nM for the first, 46 nM for the second.

Compared with CCC(C)c1cc2cc(OC)ccc2n1Cc1cccc(-c2nnn[nH]2)n1 (stereo not shown) [Example 5-1, 2-(butan-2-yl)-5-methoxy-1-[6-(1H-1,2,3,4-tetrazol-5-yl)pyridin-2-ylmethyl]-1H-indole], CCC(C)c1cc2cc(OC)ccc2n1Cc1cccc(C(=O)NS(=O)(=O)C(C)C)n1 (stereo not shown) [Example 4-17, 6-[2-(butan-2-yl)-5-methoxyindol-1-ylmethyl]-N-(propane-2-sulfonyl)pyridine-2-carboxamide] is 2.1-fold higher in IC50: 23 nM for the first, 49 nM for the second. The first is the more potent here.

COc1cc2cc(C3(C)CC3)n(Cc3cccc(-c4nnn[nH]4)n3)c2cc1Cl [Example 5-6, 6-chloro-5-methoxy-2-(1-methylcyclopropyl)-1-[6-(1H-1,2,3,4-tetrazol-5-yl)pyridin-2-ylmethyl]-1H-indole] and COc1cc2cc(-c3ccoc3)n(Cc3cccc(-c4nnn[nH]4)n3)c2cc1Cl [Example 5-4, 6-chloro-2-(furan-3-yl)-5-methoxy-1-[6-(1H-1,2,3,4-tetrazol-5-yl)pyridin-2-ylmethyl]-1H-indole] are within 1.5-fold of each other in IC50: 33 nM for the first, 35 nM for the second.

Going from CCCS(=O)(=O)NC(=O)c1cccc(Cn2c(-c3ccccc3)cc3cc(OC)ccc32)n1 [Example 4-12, 6-(5-methoxy-2-phenylindol-1-ylmethyl)-N-(propane-1-sulfonyl)pyridine-2-carboxamide] to CCS(=O)(=O)NC(=O)c1cccc(Cn2c(-c3ccccc3)cc3cc(OC)ccc32)n1 [Example 1-12, N-(ethanesulfonyl)-6-(5-methoxy-2-phenylindol-1-ylmethyl)pyridine-2-carboxamide], the IC50 rises from 30 nM to 81 nM (2.7-fold).

Going from COc1ccc2c(c1)cc(-c1ccccc1)n2Cc1ccc(-c2nnn[nH]2)o1 [Example 2-2, 5-methoxy-2-phenyl-1-[5-(1H-1,2,3,4-tetrazol-5-yl)furan-2-ylmethyl]-1H-indole] to COc1ccc2c(c1)cc(C1(C)CC1)n2Cc1ccc(-c2nnn[nH]2)o1 [Example 5-7, 5-methoxy-2-(1-methylcyclopropyl)-1-[5-(1H-1,2,3,4-tetrazol-5-yl)furan-2-ylmethyl]-1H-indole], the IC50 rises from 42 nM to 64 nM (1.5-fold). The first is the more potent here.

Compared with COc1cc2cc(-c3ccccc3)n(Cc3cccc(-c4nnn[nH]4)n3)c2cc1Cl [Example 2-3, 6-chloro-5-methoxy-2-phenyl-1-[6-(1H-1,2,3,4-tetrazol-5-yl)pyridin-2-ylmethyl]-1H-indole], COc1cc2cc(-c3ccccc3)n(Cc3cccc(-c4noc(=O)[nH]4)n3)c2cc1F [Example 6-6, 3-[6-(6-fluoro-5-methoxy-2-phenylindol-1-ylmethyl)pyridin-2-yl]-4,5-dihydro-1,2,4-oxadiazol-5-one] is 3-fold lower in IC50: 67 nM for the first, 22 nM for the second. The second is the more potent here.

First: COc1cc2cc(-c3ccccc3)n(Cc3cccc(C(=O)NS(C)(=O)=O)n3)c2cc1F [Example 4-19, 6-(6-fluoro-5-methoxy-2-phenylindol-1-ylmethyl)-N-(methanesulfonyl)pyridine-2-carboxamide]
Second: COc1cc2cc(-c3ccccc3)n(Cc3cccc(C(=O)NS(=O)(=O)C4CC4)n3)c2cc1F [Example 4-23, N-(cyclopropanesulfonyl)-6-(6-fluoro-5-methoxy-2-phenylindol-1-ylmethyl)pyridine-2-carboxamide]
The IC50 of the first is 2.1-fold higher: 60 nM for the first, 28 nM for the second. The second is the more potent here.

CCCS(=O)(=O)NC(=O)c1cccc(Cn2c(C(C)CC)cc3cc(OC)ccc32)n1 (stereo not shown) [Example 4-16, 6-[2-(butan-2-yl)-5-methoxyindol-1-ylmethyl]-N-(propane-1-sulfonyl)pyridine-2-carboxamide] and CCC(C)c1cc2cc(OC)ccc2n1Cc1cccc(C(=O)NS(=O)(=O)C2CC2)n1 (stereo not shown) [Example 4-18, 6-[2-(butan-2-yl)-5-methoxyindol-1-ylmethyl]-N-(cyclopropanesulfonyl)pyridine-2-carboxamide] are within 1.5-fold of each other in IC50: 43 nM for the first, 31 nM for the second.

CCS(=O)(=O)NC(=O)c1cccc(Cn2c(-c3cc(F)ccc3F)cc3cc(OC)ccc32)n1 [Example 4-5, 6-[2-(2,5-difluorophenyl)-5-methoxyindol-1-ylmethyl]-N-(ethanesulfonyl)pyridine-2-carboxamide] and COc1ccc2c(c1)cc(-c1ccccc1)n2Cc1cccc(C(=O)NS(=O)(=O)C(C)C)n1 [Example 4-13, 6-(5-methoxy-2-phenylindol-1-ylmethyl)-N-(propane-2-sulfonyl)pyridine-2-carboxamide] are within 1.5-fold of each other in IC50: 47 nM for the first, 37 nM for the second.

Compared with COc1ccc2c(c1)cc(-c1ccccc1)n2Cc1cccc(C(=O)NS(=O)(=O)C2CC2)n1 [Example 4-14, N-(cyclopropanesulfonyl)-6-(5-methoxy-2-phenylindol-1-ylmethyl)pyridine-2-carboxamide], COc1cc2cc(-c3ccccc3)n(Cc3cccc(C(=O)NC#N)n3)c2cc1F [Example 8-7, N-cyano-6-(6-fluoro-5-methoxy-2-phenylindol-1-ylmethyl)pyridine-2-carboxamide] is 1.5-fold higher in IC50: 63 nM for the first, 97 nM for the second.

COc1cc2cc(-c3ccsc3)n(Cc3cccc(C(=O)NS(C)(=O)=O)n3)c2cc1F [Example 1-5, 6-[6-fluoro-5-methoxy-2-(thiophen-3-yl)indol-1-ylmethyl]-N-(methanesulfonyl)pyridine-2-carboxamide] gave an IC50 of 49 nM.
